Test results as given in patent publication US20060216693A1, “Method of screening compounds which inhibit the initiation of the retrotranscription of the rna of virus hiv-1 and means for implementing same” (priority 2003, published 2006).
Where “and” joins values, the source holds several entries; their conditions need not be identical. Equal values may be shown once.

Assays:
[1] = system: HIV-1 reverse transcriptase; assay: Synthesis of product corresponding to reverse transcription initiation (addition of first 6 nucleotides to biotinylated tRNAHis primer), scintillation proximity assay; assay type: biochemical; conditions: calculated
Method: FIG. 7: (−) Synthesis of a Product Corresponding to Retrotranscription Initiation from Biotinylated vRNA complex [His-AC-GAC]/tRNA^His
The signal attenuation is detected with […] of AZTTP. The numbers in bold and italic on the top of histograms corresponds to the percent of residual signal compared to the control without inhibitor.
Reactions are stopped by adding EDTA 25 mM and extension product detection is performed as previously described.

[2] = system: HIV-1 reverse transcriptase; conditions: 5 μM inhibitor, 5 μM each dNTP, 30 minute-reaction, 37° C.
[3] = biological target: HIV-1 reverse transcriptase (Human immunodeficiency virus type 1 group M subtype B, UniProt P04585); conditions: selectivity measured in initiation and elongation (Rigourd and al., 2000); cited from earlier work

Structure (SMILES) | Theoretical signal ([1]; [dTTP]/[AZTTP] = 2, selectivity (AZTTP/dTTP) = 0.6) [%] | Theoretical signal ([1]; [dTTP]/[AZTTP] = 2, selectivity (AZTTP/dTTP) = 0.7) [%] | Theoretical signal ([1]; [dTTP]/[AZTTP] = 50, selectivity (AZTTP/dTTP) = 0.6) [%] | Theoretical signal ([1]; [dTTP]/[AZTTP] = 50, selectivity (AZTTP/dTTP) = 0.7) [%] | inhibition rate of (−) strand strong-stop DNA synthesis [2] | AZTTP incorporation selectivity against dTTP [3]
Cc1cn([C@H]2C[C@H](N=[N+]=[N-])[C@@H](CO[P@](=O)(O)O[P@](=O)(O)OP(=O)(O)O)O2)c(=O)[nH]c1=O [AZTTP] | 60.7 | 56.7 | 97.7 | 97.3 | about 90% | 0.6 and 0.7
Cc1cn([C@H]2C=C[C@@H](COP(=O)(O)OP(=O)(O)OP(=O)(O)O)O2)c(=O)[nH]c1=O [d4TTP] | – | – | – | – | 80% | –
